target: Protein cereblon/DNA damage-binding protein 1 (Homo sapiens) (UniProt Q96SW2+Q16531); experiment: Displacement of AlexaFlour-conjugated ligand from CRBN/DDB1 complex (unknown origin) incubated in 0.05% PA/0.1% BSA at room temperature for 60 mins by fluorescence polarization assay; format: protein assay
Sequence (Q16531 2-1140 partner limits assumed): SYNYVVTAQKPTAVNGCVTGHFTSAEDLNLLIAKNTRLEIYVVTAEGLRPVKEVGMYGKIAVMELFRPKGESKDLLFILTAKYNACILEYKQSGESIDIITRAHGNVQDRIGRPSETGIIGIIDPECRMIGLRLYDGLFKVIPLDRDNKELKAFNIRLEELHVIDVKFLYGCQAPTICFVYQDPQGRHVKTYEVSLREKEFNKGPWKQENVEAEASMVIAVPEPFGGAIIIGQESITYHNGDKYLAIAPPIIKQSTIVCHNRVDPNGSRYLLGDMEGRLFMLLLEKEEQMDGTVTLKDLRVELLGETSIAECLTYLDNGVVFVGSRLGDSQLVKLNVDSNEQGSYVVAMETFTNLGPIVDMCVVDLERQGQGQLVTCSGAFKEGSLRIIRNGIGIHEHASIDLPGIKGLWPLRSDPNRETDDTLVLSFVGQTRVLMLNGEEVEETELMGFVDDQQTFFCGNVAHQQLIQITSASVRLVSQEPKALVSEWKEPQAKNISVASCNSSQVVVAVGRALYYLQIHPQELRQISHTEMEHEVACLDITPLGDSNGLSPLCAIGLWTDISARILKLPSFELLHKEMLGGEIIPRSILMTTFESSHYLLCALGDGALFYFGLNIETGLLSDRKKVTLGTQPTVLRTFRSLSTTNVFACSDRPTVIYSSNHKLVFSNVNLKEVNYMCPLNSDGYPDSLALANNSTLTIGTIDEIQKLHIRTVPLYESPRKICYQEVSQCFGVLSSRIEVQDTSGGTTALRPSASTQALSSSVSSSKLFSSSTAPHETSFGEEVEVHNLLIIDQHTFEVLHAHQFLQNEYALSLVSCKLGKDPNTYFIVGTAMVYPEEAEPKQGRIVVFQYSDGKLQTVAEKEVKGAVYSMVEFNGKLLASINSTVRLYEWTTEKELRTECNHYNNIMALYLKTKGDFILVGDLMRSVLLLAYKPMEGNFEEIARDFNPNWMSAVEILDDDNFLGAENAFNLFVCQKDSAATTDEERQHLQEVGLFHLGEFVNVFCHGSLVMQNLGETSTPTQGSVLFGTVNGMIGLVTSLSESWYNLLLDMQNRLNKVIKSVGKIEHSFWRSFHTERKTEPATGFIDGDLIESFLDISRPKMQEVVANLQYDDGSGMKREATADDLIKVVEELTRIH
Sequence (Q96SW2 whole entry): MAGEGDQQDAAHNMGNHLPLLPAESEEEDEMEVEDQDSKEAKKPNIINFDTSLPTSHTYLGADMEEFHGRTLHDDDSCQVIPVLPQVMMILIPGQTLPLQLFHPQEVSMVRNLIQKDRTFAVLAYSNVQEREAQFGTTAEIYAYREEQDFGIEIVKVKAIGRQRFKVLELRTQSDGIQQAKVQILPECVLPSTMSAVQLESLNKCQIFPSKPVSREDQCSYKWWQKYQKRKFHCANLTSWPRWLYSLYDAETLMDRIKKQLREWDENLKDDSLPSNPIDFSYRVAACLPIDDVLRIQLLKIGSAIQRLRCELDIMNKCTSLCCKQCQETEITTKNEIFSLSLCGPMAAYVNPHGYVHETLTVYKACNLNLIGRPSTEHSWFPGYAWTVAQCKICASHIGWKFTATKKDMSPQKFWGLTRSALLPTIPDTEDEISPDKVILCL

Row | SMILES | binding affinity (displacement) [µM]
1 | CNC1CCN(c2cccc3c2O[C@@H](C)CN3C2CCC(=O)NC2=O)CC1 (stereo partly drawn) | < 100
2 | CNC1CCN(c2cccc3c2O[C@H](C)CN3C2CCC(=O)NC2=O)CC1 (stereo partly drawn) | < 100
3 | O=C1CCC(N2CCOc3c([C@@H]4CCCNC4)cccc32)C(=O)N1 (stereo partly drawn) | < 100
4 | CN(C(=O)OC(C)(C)C)C1CCN(c2cccc3c2OCCN3[C@@H]2CCC(=O)NC2=O)CC1 | < 1
5 | CN(C(=O)OC(C)(C)C)C1CCN(c2cccc3c2OCCN3[C@H]2CCC(=O)NC2=O)CC1 | < 100
6 | O=C1CCC(N2CCOc3c([C@H]4CCNC4)cccc32)C(=O)N1 (stereo partly drawn) | < 100
7 | O=C1CCC(N2CCOc3c([C@@H]4CCNC4)cccc32)C(=O)N1 (stereo partly drawn) | < 100
8 | O=C1CCC(N2CCOc3c(N4CCNCC4)cccc32)C(=O)N1 (stereo not drawn) | < 100
